These results are taken from patent US20140155384A1, “COMPOUNDS AND METHODS OF TREATING DIABETES” (Medivation Technologies, Inc., priority 2011, published 2014).

Molecules are shown by their SMILES.

In assay [1] the target is T1, human recombinant adrenergic α2B receptor (Homo sapiens, UniProt P18089).
T1 construct: expressed in transfected cells; host or cells: CHO-K1
T1 sequence (P18089 1-450): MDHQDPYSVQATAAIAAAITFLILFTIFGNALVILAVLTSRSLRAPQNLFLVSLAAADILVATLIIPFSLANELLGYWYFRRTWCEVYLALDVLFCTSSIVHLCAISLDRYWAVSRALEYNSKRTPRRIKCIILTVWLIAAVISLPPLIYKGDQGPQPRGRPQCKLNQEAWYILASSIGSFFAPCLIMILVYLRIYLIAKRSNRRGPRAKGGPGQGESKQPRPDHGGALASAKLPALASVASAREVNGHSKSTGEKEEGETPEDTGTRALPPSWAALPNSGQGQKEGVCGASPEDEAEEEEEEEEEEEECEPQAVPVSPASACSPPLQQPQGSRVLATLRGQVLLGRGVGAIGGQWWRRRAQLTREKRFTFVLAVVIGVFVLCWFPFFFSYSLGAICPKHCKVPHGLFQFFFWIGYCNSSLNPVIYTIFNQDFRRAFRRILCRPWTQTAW
Nature of the assay: Radioligand binding, adrenergic α2B receptor ([3H]Rauwolscine). The settings on record: 0.1 μM compound, CHO-K1 cells, read-out: Percentage inhibition of ligand binding, Adrenergic α2B. The essentials: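 Percent inhibition of specific [3H]Rauwolscine (2.5 nM) binding, compounds at ≤1 μM, 1% DMSO vehicle, 10 μM prazosin defining nonspecific. Receptor: human α2B expressed in CHO-K1 cells, 60 min incubation at 25 °C in Tris-HCl pH 7.4 buffer (MgCl2, EDTA, BSA); filtered, washed, counted.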

In assay [2] the target is T2, human recombinant adrenergic α2A receptor (Homo sapiens, UniProt P08913).
T2 construct: expressed in transfected cells; host or cells: insect Sf9 cells
T2 sequence (P08913 1-465): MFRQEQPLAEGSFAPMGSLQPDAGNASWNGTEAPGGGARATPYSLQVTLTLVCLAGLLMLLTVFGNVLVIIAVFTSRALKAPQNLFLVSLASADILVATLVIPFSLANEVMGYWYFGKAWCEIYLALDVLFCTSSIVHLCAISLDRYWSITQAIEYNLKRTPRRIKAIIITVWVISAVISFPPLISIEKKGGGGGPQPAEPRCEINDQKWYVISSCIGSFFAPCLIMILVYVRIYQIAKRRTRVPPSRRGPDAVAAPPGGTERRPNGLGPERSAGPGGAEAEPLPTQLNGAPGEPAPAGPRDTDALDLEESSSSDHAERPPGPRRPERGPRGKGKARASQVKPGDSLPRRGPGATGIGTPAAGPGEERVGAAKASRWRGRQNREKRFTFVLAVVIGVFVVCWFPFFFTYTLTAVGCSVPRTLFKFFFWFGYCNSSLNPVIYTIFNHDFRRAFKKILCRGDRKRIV
Nature of the assay: Radioligand binding, adrenergic α2A receptor ([3H]MK-912). The settings on record: 0.1 μM compound; Sf9 cells; 1 nM [3H]MK-912; read-out: Percentage inhibition of ligand binding, Adrenergic α2A. The essentials:
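Percent inhibition of specific [3H]MK-912 (1 nM) binding measured by filtration counting, compounds tested at ≤1 μM in 1% DMSO. Receptor: human α2A from Sf9 cells; incubation 60 min, 25 °C, pH 7.4; 10 μM WB-4101 defined nonspecific binding.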

The target in assay [3] is T3, rat adrenergic α1B receptor (Rattus norvegicus, UniProt P15823).
T3 construct: rat adrenergic α1B receptor obtained from Wistar Rat liver; from tissue; host or cells: Wistar rat liver
T3 sequence (P15823 1-515): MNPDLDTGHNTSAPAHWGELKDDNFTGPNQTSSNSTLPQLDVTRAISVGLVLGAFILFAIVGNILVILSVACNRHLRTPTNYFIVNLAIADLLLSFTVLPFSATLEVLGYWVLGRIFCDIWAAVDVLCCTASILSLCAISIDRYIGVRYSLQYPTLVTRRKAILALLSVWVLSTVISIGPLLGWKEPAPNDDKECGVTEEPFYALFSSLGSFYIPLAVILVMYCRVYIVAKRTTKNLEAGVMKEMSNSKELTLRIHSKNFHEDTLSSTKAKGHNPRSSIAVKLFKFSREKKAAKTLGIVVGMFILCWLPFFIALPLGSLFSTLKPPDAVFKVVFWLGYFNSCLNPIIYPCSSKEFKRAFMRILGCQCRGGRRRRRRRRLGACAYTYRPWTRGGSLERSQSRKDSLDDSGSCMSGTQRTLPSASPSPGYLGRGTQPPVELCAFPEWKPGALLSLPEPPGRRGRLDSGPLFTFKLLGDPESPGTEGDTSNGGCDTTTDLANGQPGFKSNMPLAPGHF
Nature of the assay: Radioligand binding, adrenergic α1B receptor ([3H]Prazosin). The settings on record: 0.1 μM compound, Wistar rat liver, read-out: Percentage inhibition of ligand binding, Adrenergic α1B. The essentials:
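Wistar rat liver α1B receptor preparation incubated with 0.25 nM [3H]prazosin and compound for 60 min at 25° C in 50 mM Tris-HCl pH 7.4, 0.5 mM EDTA; nonspecific binding defined with 10 μM phentolamine.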

The target of assay [4] is T4, human recombinant adrenergic α1D receptor (Homo sapiens, UniProt P25100).
T4 construct: expressed in transfected cells; host or cells: HEK-293
T4 sequence (P25100 1-572): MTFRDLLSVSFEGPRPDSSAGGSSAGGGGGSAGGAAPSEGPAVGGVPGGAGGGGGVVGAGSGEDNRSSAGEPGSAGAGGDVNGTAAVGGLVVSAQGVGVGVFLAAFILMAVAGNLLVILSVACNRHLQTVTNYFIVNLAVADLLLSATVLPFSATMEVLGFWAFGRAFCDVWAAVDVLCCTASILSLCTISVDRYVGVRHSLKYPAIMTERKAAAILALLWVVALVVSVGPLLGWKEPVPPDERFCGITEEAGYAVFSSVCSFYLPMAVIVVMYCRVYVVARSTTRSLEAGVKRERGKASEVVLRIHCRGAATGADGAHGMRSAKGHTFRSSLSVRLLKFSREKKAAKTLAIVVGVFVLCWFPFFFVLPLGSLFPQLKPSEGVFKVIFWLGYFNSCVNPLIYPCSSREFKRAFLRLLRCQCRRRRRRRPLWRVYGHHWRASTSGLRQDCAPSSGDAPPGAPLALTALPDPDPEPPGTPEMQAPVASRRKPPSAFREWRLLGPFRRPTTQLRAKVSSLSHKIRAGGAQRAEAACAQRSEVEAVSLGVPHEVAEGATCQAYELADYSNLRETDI
Nature of the assay: Radioligand binding, adrenergic α1D receptor ([3H]Prazosin). Particulars: 0.1 μM compound; HEK-293 cells; 0.6 nM [3H]Prazosin; read-out: Percentage inhibition of ligand binding, Adrenergic α1D. The procedure: Compounds were incubated with 0.6 nM [3H]Prazosin for 60 min at 25° C. Non-specific binding was estimated in the presence of 10 μM phentolamine. Receptor proteins were filtered and washed, the filters were then counted to determine [3H]Prazosin specifically bound. Compounds were screened at 1 μM or lower, using 1% DMSO as vehicle. Biochemical assay results are presented as the percent inhibition of specific binding in Table 2.

In general, inhibition refers to the relative decrease from the control value, in per cent. For `Cc1ccc2c(c1)c1c(n2-c2ccc(-c3cnc(N(C)C)nc3)cn2)CCN(C)C1` [Compound No. 138, 5-(6-(2,8-dimethyl-3,4-dihydro-1H-pyrido[4,3-b]indol-5(2H)-yl)pyridin-3-yl)-N,N-dimethylpyrimidin-2-amine], the inhibition at 0.1 µM in assay [1] was 82%; in assay [2], 40%; in assay [3], 73%; in assay [4], 73%.

For `Cc1ccc2c(c1)c1c(n2-c2cscc2-c2ccnn2C)CCN(C)C1` [Compound No. 150], the inhibition at 0.1 µM in assay [1] is 77%; in assay [2], 55%; in assay [3], 72%; in assay [4], 73%.
